Measurements reported in ChEMBL document CHEMBL1141542, “Synthesis and evaluation of 3- and 7-substituted geranylgeranyl pyrophosphate analogs” (Bioorg Med Chem Lett, 2008).

What was measured:
[1] = Activity of GGTase 1
[2] = Inhibition of FTase
[3] = Activity of FTase
[4] = Inhibition of GGTase 1

Row | Km [1] | IC50 [2] | Km [3] | IC50 [4] | Structure (SMILES)
1 | 1.75 µM | 715 nM |  |  | C=C/C(=C\COP(=O)(O)OP(=O)(O)O)CC/C=C(\C)CC/C=C(\C)CCC=C(C)C
2 |  |  | 0.156 µM |  | C=C/C(=C\COP(=O)(O)OP(=O)(O)O)CC/C=C(\C)CCC=C(C)C
3 |  | 453 nM |  | 846 nM | C=CC/C(=C\COP(=O)(O)OP(=O)(O)O)CC/C=C(\C)CC/C=C(\C)CCC=C(C)C
4 |  | > 5000 nM |  | 1000 nM | C=C/C(=C\CC/C(C)=C/COP(=O)(O)OP(=O)(O)O)CC/C=C(\C)CCC=C(C)C
5 | 0.027 µM | > 5000 nM |  |  | C=CC/C(=C\CC/C(C)=C/COP(=O)(O)OP(=O)(O)O)CC/C=C(\C)CCC=C(C)C
6 |  | 189 nM |  |  | C=CC/C(=C\COP(=O)(O)OP(=O)(O)O)CC/C=C(\C)CCC=C(C)C
